Reference: PubChem BioAssay AID248 (DTP/NCI, 2004)
Where “and” joins values, the source holds several entries; their conditions need not be identical. Equal values may be shown once. Inconclusive results and toxic doses are left out. No stated cut-off is given here; in the data, active means T/C of 150% or more; inactive means T/C below 125%.

Tested on: L1210 leukemia ip in BDF1 mice, survival T/C
Assay: NCI In Vivo Anticancer Drug Screen. Data for tumor model L1210 Leukemia (intraperitoneal) in B6D2F1 (BDF1) mice
Conditions: endpoint: mean survival time, higher = longer survival
How it was run: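 Each compound was tested against a transplantable tumor grown in mice. The endpoint was survival, with treated animals benchmarked against vehicle controls as a simple ratio.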

[1] = dose: 12.5 mg/kg/injection, schedule: Q01DX009 (ip), vehicle: Klucel (hydroxypropylcellulose) (HPC)
[2] = dose: 25.0 mg/kg/injection, schedule: Q01DX009 (ip), vehicle: Klucel (hydroxypropylcellulose) (HPC)
[3] = dose: 25.0 mg/kg/injection, schedule: Q04DX003 (ip), vehicle: Klucel (hydroxypropylcellulose) (HPC)
[4] = dose: 100.0 mg/kg/injection, schedule: Q04DX003 (ip), vehicle: Klucel (hydroxypropylcellulose) (HPC)
[5] = dose: 100.0 mg/kg/injection, schedule: Q01DX001 (ip), vehicle: carboxymethylcellulose (CMC)
[6] = dose: 200.0 mg/kg/injection, schedule: Q01DX001 (ip), vehicle: carboxymethylcellulose (CMC)
[7] = dose: 400.0 mg/kg/injection, schedule: Q01DX001 (ip), vehicle: carboxymethylcellulose (CMC)

Measured: T/C

CCOP(=O)(OCC)/C(C#N)=C\c1ccc(OC)c(OC)c1
inactive: dose: 100.0 mg/kg/injection, schedule: Q04DX003 (ip), vehicle: saline with Tween-80 97 % of control | dose: 200.0 mg/kg/injection, schedule: Q04DX003 (ip), vehicle: saline with Tween-80 92 % of control | dose: 400.0 mg/kg/injection, schedule: Q04DX003 (ip), vehicle: saline with Tween-80 92 % of control

COC(=O)CCC1CCC(=O)C1 (stereo not drawn)
inactive: dose: 37.5 mg/kg/injection, schedule: Q04DX002 (ip), vehicle: saline with Tween-80 95 % of control | dose: 75.0 mg/kg/injection, schedule: Q04DX002 (ip), vehicle: saline with Tween-80 95 % of control | dose: 150.0 mg/kg/injection, schedule: Q04DX002 (ip), vehicle: saline with Tween-80 98 % of control | dose: 300.0 mg/kg/injection, schedule: Q04DX002 (ip), vehicle: saline with Tween-80 95 % of control

C[N+](C)(C)C(=Nc1ccccc1)c1ccccc1
inactive: [1] 100 % of control | [2] 96 % of control | [3] 108 % of control | dose: 50.0 mg/kg/injection, schedule: Q01DX009 (ip), vehicle: Klucel (hydroxypropylcellulose) (HPC) 100 % of control and 105 % of control | dose: 50.0 mg/kg/injection, schedule: Q04DX003 (ip), vehicle: Klucel (hydroxypropylcellulose) (HPC) 94 % of control | [4] 100 % of control

COc1ccc(-c2c(C)c(C(=O)O)nc(-c3ccc4c(O)c(OC)c5c(c4n3)=NC(C)(C)N=5)c2N)c(O)c1OC
inactive: dose: 4.5 mg/kg/injection, schedule: Q01DX Z (ip), vehicle: water 104 % of control | dose: 6.7 mg/kg/injection, schedule: Q01DX Z (ip), vehicle: water 97 % of control | dose: 10.0 mg/kg/injection, schedule: Q01DX Z (ip), vehicle: water 111 % of control | dose: 15.0 mg/kg/injection, schedule: Q01DX Z (ip), vehicle: water 103 % of control

ON(C(=Nc1cccc2ccccc12)c1ccccc1)c1ccccc1
inactive: dose: 75.0 mg/kg/injection, schedule: Q01DX001 (ip), vehicle: carboxymethylcellulose (CMC) 97 % of control | dose: 150.0 mg/kg/injection, schedule: Q01DX001 (ip), vehicle: carboxymethylcellulose (CMC) 92 % of control | dose: 300.0 mg/kg/injection, schedule: Q01DX001 (ip), vehicle: carboxymethylcellulose (CMC) 98 % of control

Cc1cc([N+](=O)[O-])c(C)cc1NC(=O)c1ccccc1
inactive: [5] 91 % of control | [6] 92 % of control | [7] 94 % of control

Cc1cccc(Cl)c1NC(=O)CCC(=O)O
inactive: dose: 100.0 mg/kg/injection, schedule: Q01DX001 (ip), vehicle: saline 101 % of control | dose: 200.0 mg/kg/injection, schedule: Q01DX001 (ip), vehicle: saline 101 % of control | dose: 400.0 mg/kg/injection, schedule: Q01DX001 (ip), vehicle: saline 95 % of control

CC(CCc1ccccn1)C(=O)c1ccccc1 (stereo not drawn)
inactive: dose: 222.0 mg/kg/injection, schedule: Q01DX Z (ip), vehicle: methylcellulose (MC) 93 % of control | dose: 333.0 mg/kg/injection, schedule: Q01DX Z (ip), vehicle: methylcellulose (MC) 98 % of control | dose: 500.0 mg/kg/injection, schedule: Q01DX Z (ip), vehicle: methylcellulose (MC) 94 % of control

CCCCCCOc1ccc(C2=C(c3ccccc3)C(=O)C(c3ccccc3)=C2c2ccccc2)cc1
inactive: [5] 100 % of control | [6] 97 % of control | [7] 100 % of control

CC1(C)CCC2(C(=O)O)CCC3=C(C(CCl)CC4C3(C)CCC3C4(C)CC(O)C(O)C3(C)C(=O)O)C2C1 (stereo not drawn)
inactive: dose: 25.0 mg/kg/injection, schedule: Q01DX Z (ip), vehicle: carboxymethylcellulose (CMC) 96 % of control | dose: 50.0 mg/kg/injection, schedule: Q01DX Z (ip), vehicle: carboxymethylcellulose (CMC) 91 % of control | dose: 75.0 mg/kg/injection, schedule: Q01DX Z (ip), vehicle: carboxymethylcellulose (CMC) 97 % of control | dose: 125.0 mg/kg/injection, schedule: Q01DX Z (ip), vehicle: carboxymethylcellulose (CMC) 94 % of control

O=C(O)CCSc1ccc2c(c1)CCCC2
inactive: dose: 100.0 mg/kg/injection, schedule: Q04DX003 (ip), vehicle: acetone 99 % of control | dose: 200.0 mg/kg/injection, schedule: Q04DX003 (ip), vehicle: acetone 100 % of control | dose: 400.0 mg/kg/injection, schedule: Q04DX003 (ip), vehicle: acetone 96 % of control

FC(F)(Cl)c1nc2nc(Cl)c(Cl)nc2[nH]1
inactive: dose: 50.0 mg/kg/injection, schedule: Q01DX009 (ip), vehicle: other 96 % of control | dose: 100.0 mg/kg/injection, schedule: Q01DX009 (ip), vehicle: other 122 % of control | dose: 100.0 mg/kg/injection, schedule: Q04DX003 (ip), vehicle: other 114 % of control | dose: 200.0 mg/kg/injection, schedule: Q04DX003 (ip), vehicle: other 123 % of control | dose: 400.0 mg/kg/injection, schedule: Q04DX003 (ip), vehicle: other 96 % of control

N#CSc1ccc(S(N)(=O)=O)cc1
inactive: dose: 6.25 mg/kg/injection, schedule: Q01DX009 (ip), vehicle: Klucel (hydroxypropylcellulose) (HPC) 94 % of control | [1] 92 % of control | dose: 12.5 mg/kg/injection, schedule: Q04DX003 (ip), vehicle: Klucel (hydroxypropylcellulose) (HPC) 100 % of control | [2] 106 % of control | [3] 105 % of control

Cc1cccc(C)c1N=Nc1cc[n+]([O-])cc1
inactive: dose: 6.25 mg/kg/injection, schedule: Q04DX003 (ip), vehicle: saline with Tween-80 92 % of control | dose: 12.5 mg/kg/injection, schedule: Q04DX003 (ip), vehicle: saline with Tween-80 95 % of control | dose: 25.0 mg/kg/injection, schedule: Q04DX003 (ip), vehicle: saline with Tween-80 102 % of control and 92 % of control | dose: 50.0 mg/kg/injection, schedule: Q04DX003 (ip), vehicle: saline with Tween-80 100 % of control

O=c1[nH]cc(COCC(F)(F)C(F)(F)C(F)(F)F)c(=O)[nH]1
inactive: dose: 50.0 mg/kg/injection, schedule: Q01DX005 (ip), vehicle: water 104 % of control | dose: 100.0 mg/kg/injection, schedule: Q01DX005 (ip), vehicle: water 93 % of control | dose: 200.0 mg/kg/injection, schedule: Q01DX005 (ip), vehicle: water 95 % of control | dose: 400.0 mg/kg/injection, schedule: Q01DX005 (ip), vehicle: water 87 % of control

O=C(O)C1C(c2ccccc2)=C1c1ccc(Br)cc1 (stereo not drawn)
inactive: dose: 100.0 mg/kg/injection, schedule: Q01DX009 (ip), vehicle: Klucel (hydroxypropylcellulose) (HPC) 100 % of control | [4] 93 % of control | dose: 200.0 mg/kg/injection, schedule: Q01DX009 (ip), vehicle: Klucel (hydroxypropylcellulose) (HPC) 118 % of control | dose: 200.0 mg/kg/injection, schedule: Q04DX003 (ip), vehicle: Klucel (hydroxypropylcellulose) (HPC) 102 % of control | dose: 400.0 mg/kg/injection, schedule: Q01DX009 (ip), vehicle: Klucel (hydroxypropylcellulose) (HPC) 101 % of control | dose: 400.0 mg/kg/injection, schedule: Q04DX003 (ip), vehicle: Klucel (hydroxypropylcellulose) (HPC) 88 % of control
